Test results reported in patent US20230277698A1, “SILICON-CONTAINING LIGAND COMPOUNDS” (Technische Universität München, priority 2020, published 2023).

Legend:
[1] = Octanol-water partition coefficient; type: physicochemical; details: 177Lu-labelled; n-octanol/PBS pH 7.4; n=6
Procedure: Approximately 1 MBq of the labelled tracer was dissolved in 1 mL of a 1:1 mixture (v/v) of PBS (pH 7.4) and n-octanol in a reaction vial (1.5 mL). After vigorous mixing of the suspension for 3 minutes at room temperature, the vial was centrifuged at 15000 g for 3 minutes (Biofuge 15, Heraeus Sepatech, Osterode, Germany) and 100 μL aliquots of both layers were measured in a gamma counter. The experiment was repeated at least six times.
FIG. 5 and the following table summarize log PO/W values of the synthesized radiolabeled ^177Lu-PSMA ligand compounds and ^177Lu-references (n=6).

[2] = tested on: LNCaP tumor-bearing CB17-SCID mice; test: Biodistribution studies 24 h p.i.; type: in vivo; details: 177Lu-labelled, mean±SD, n=4-5; for biodistribution: tumor: LNCaP xenograft; for biodistribution: blood: i.v. tail vein
Procedure: All animal experiments were conducted in accordance with general animal welfare regulations in Germany (German animal protection act, as amended on 18 May 2018, Art. 141 G v. 29.3.2017|626, approval no. 55.2-1-54-2532-71-13) and the institutional guidelines for the care and use of animals. To establish tumor xenografts, LNCaP cells (approx. 10^7 cells) were suspended in 200 μL of a 1:1 mixture (v/v) of DMEM F-12 and Matrigel (BD Biosciences, Germany), and inoculated subcutaneously onto the right shoulder of 6-8 weeks old CB17-SCID mice (Charles River, Sulzfeld, Germany). Mice were used for experiments when tumors had grown to a diameter of 5-10 mm (3-6 weeks after inoculation).
Approximately 5-10 MBq (0.1-0.2 nmol) of the radioactive-labelled PSMA inhibitors were injected into the tail vein of LNCaP tumor-bearing male CB-17 SCID mice and sacrificed after 24 h post injection. Selected organs were removed, weighted and measured in a γ-counter.
FIG. 10 and the following table show the biodistribution data 24 h p.i. of ^177Lu-labeled compounds in LNCaP tumor-bearing CB17-SCID mice. Data are expressed as mean±SD (n=4-5).

[3] = molecular target: human serum albumin (HSA) (Homo sapiens, UniProt P02768); test: HSA binding by high performance affinity chromatography (HiPAC); type: in vitro ADME; set-up: purchased Daicel, Tokyo, Japan H13H-2433; details: lutetium-complexed; Chiralpak HSA column
human serum albumin (HSA), sequence (P02768 25-609): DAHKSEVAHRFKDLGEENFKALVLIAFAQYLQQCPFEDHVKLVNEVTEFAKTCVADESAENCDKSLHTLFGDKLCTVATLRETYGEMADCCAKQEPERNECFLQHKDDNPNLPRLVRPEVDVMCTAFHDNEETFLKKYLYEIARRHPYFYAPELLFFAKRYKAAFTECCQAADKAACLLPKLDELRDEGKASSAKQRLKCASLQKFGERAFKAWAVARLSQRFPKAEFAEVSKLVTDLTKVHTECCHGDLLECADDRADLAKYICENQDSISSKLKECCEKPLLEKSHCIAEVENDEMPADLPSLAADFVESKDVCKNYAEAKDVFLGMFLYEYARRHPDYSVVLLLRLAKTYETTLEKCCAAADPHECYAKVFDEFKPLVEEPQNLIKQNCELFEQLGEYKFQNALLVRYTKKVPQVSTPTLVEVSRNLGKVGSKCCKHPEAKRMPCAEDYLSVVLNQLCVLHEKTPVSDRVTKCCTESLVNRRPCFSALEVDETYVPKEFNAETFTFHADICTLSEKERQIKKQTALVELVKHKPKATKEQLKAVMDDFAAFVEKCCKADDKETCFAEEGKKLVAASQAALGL
Procedure: HSA binding of the PSMA-addressing ligands was determined according to a previously published procedure via HPLC (Valko, K.; Nunhuck, S.; Bevan, C.; Abraham, M. H.; Reynolds, D. P., Fast gradient HPLC method to determine compounds binding to human serum albumin. Relationships with octanol/water and immobilized artificial membrane lipophilicity. J Pharm Sci. 2003, 92, 2236-2248). A Chiralpak HSA column (50×3 mm, 5 μm, H13H-2433, Daicel, Tokyo, Japan) was used at a constant flow rate of 0.5 mL/min at rt. Mobile phase A was a freshly prepared 50 mM aqueous solution of NH4OAc (pH 6.9) and mobile phase B was isopropanol (HPLC grade, VWR). The applied gradient for all experiments was 100% A (0 to 3 min), followed by 80% A (3 to 40 min). Prior to the experiment, the column was calibrated using nine reference substances with a HSA binding, known from literature, in the range of 13 to 99% (Valko, K.; Nunhuck, S.; Bevan, C.; Abraham, M. H.; Reynolds, D. P., J Pharm Sci. 2003, 92, 2236-2248; Yamazaki, K.; Kanaoka, M., Computational prediction of the plasma protein-binding percent of diverse pharmaceutical compounds. J Pharm Sci. 2004, 93, 1480-1494). All substances, including the examined PSMA ligands, were dissolved in a 1:1 mixture (v/v) of isopropanol and a 50 mM aqueous solution of NH4OAc (pH 6.9) with a final concentration of 0.5 mg/mL. Non-linear regression was established with the OriginPro 2016G software (Northampton, United States).
FIG. 1 is an exemplary sigmoidal plot, showing the correlation between human serum albumin (HSA) binding of selected reference substances and retention time (tR). The underlying values of HSA binding also shown in the corresponding table and were obtained from literature (Valko, K.; Nunhuck, S.; Bevan, C.; Abraham, M. H.; Reynolds, D. P., J Pharm Sci. 2003, 92, 2236-2248; Yamazaki, K.; Kanaoka, M., J Pharm Sci. 2004, 93, 1480-1494). Log tR: logarithmic value of experimentally determined retention time. Log K HSA: logarithmic value of HSA binding values.

Compound: CC(C)(C)[Si](O)(c1ccc(C(=O)NC[C@@H](NC(=O)CC[C@@H](C(=O)O)N2CCN(CC(=O)O)CCN(CC(=O)O)CCN(CC(=O)O)CC2)C(=O)N[C@H](CO)C(=O)NCCC(=O)NCCC(=O)NCCC[C@@H](NC(=O)CC[C@H](NC(=O)N[C@@H](CCC(=O)O)C(=O)O)C(=O)O)C(=O)O)cc1)C(C)(C)C [C007-SiOH]
- Log PO/W [1]: −4.28 ± 0.09
- biodistribution: tumor [2]: 5.4 ± 0.8 % ID/g
- biodistribution: blood [2]: 0.003 ± 0.001 % ID/g
- biodistribution: adrenals [2]: 0.20 ± 0.01 % ID/g
- biodistribution: bone [2]: 0.02 ± 0.01 % ID/g
- biodistribution: heart [2]: 0.02 ± 0.01 % ID/g
- biodistribution: intestine [2]: 0.13 ± 0.08 % ID/g
- biodistribution: kidneys [2]: 3.5 ± 1.4 % ID/g
- biodistribution: liver [2]: 0.40 ± 0.13 % ID/g
- biodistribution: lung [2]: 0.04 ± 0.01 % ID/g
- biodistribution: muscle [2]: 0.004 ± 0.001 % ID/g
- biodistribution: pancreas [2]: 0.01 ± 0.01 % ID/g
- biodistribution: parotis [2]: 0.06 ± 0.03 % ID/g
- biodistribution: spleen [2]: 0.40 ± 0.10 % ID/g
- biodistribution: stomach [2]: 0.04 ± 0.01 % ID/g
- biodistribution: submandibularis [2]: 0.03 ± 0.01 % ID/g
- HSA-binding HiPAC [3]: 86.3%

Compound: CC(C)(C)[Si](O)(c1ccc(C(=O)NC[C@@H](NC(=O)CC[C@@H](C(=O)O)N2CCN(CC(=O)O)CCN(CC(=O)O)CCN(CC(=O)O)CC2)C(=O)N[C@H](CCCCNC(=O)CCC(=O)NCCC[C@@H](NC(=O)CC[C@H](NC(=O)N[C@@H](CCC(=O)O)C(=O)O)C(=O)O)C(=O)O)C(=O)O)cc1)C(C)(C)C [7.3-SiOH]
- Log PO/W [1]: −3.9 ± 0.1
- biodistribution: tumor [2]: 7.3 ± 0.8 % ID/g
- biodistribution: blood [2]: 0.002 ± 0.001 % ID/g
- biodistribution: bone [2]: 0.01 ± 0.01 % ID/g
- biodistribution: heart [2]: 0.01 ± 0.01 % ID/g
- biodistribution: intestine [2]: 0.45 ± 0.39 % ID/g
- biodistribution: kidneys [2]: 3.7 ± 1.9 % ID/g
- biodistribution: liver [2]: 0.08 ± 0.03 % ID/g
- biodistribution: lung [2]: 0.03 ± 0.01 % ID/g
- biodistribution: muscle [2]: 0.006 ± 0.005 % ID/g
- biodistribution: pancreas [2]: 0.01 ± 0.01 % ID/g
- biodistribution: spleen [2]: 0.21 ± 0.11 % ID/g
- biodistribution: stomach [2]: 0.24 ± 0.36 % ID/g
- HSA-binding HiPAC [3]: 96.4%
